By IC50 is commonly meant the concentration needed to halve the response being measured. The low end stands for inhibition by little substance, the high end for a need for much substance. What is called CC50 is the concentration at which the toxic effect on the cells reaches its halfway point. Higher therefore signals better tolerance by the cells.

In data set [1] the test system is LD lipolysis (FFA and glycerol release). Nature of the data set: Intracellular FFA and glycerol quantification in SARS-CoV-2-infected Vero E6 cells. It is filed as cell-based, African green monkey. The following applies: SARS-CoV-2-infected cells; 20 µM at 18 hpi; vs vehicle-treated control. The protocol: (§1) Cells were grown in 6- or 12-well plates or 8-well chamber slides to the desired confluency and then washed twice with phosphate-buffered saline (PBS, pH 7.4). They were then mock-inoculated with medium only or virus-inoculated with various multiplicities of infection (MOI): MOI of 0.01 or 1 FFU/cell for IAV, and MOI of 0.01 or 0.1 FFU/cell for SARS-CoV-2, BCoV, PEDV, PRRSV, and PSaV. Thereafter, each inoculum was absorbed for 1 h, and the cells were washed twice with PBS (pH 7.4). As shown in Supplementary Table 4, further treatments and incubations varied dependent on the virus species used. […]
(§2) To determine intracellular levels of free fatty acids, the different cultured cells infected with or without the seven target RNA viruses, or treated with or without different concentrations of chemicals, and the lung samples from experimental mice and hamsters were prepared as described above. The amount of intracellular free fatty acid was determined using a quantification kit from BioVision according to the manufacturer’s recommendations.^31 Briefly, 5x10^6 cells or 100 mg of lung tissue were mixed with 500 μL of chloroform-Triton X-100 (1% Triton X-100 in pure chloroform) with vortexing at five-minute intervals for 20 min at 20°C. […]

For data set [2], the system named is Influenza A virus (H1N1) (PR8). As to conditions: for SI (CC50/IC50) / IC50: Influenza A virus (H1N1) (PR8); for IC50: A549 cells.
Data set [3] concerns Porcine epidemic diarrhea coronavirus (QIAP1401). Kind of data set: In vitro antiviral activity against PEDV in Vero E6 cells (CCIF viral yield). It is filed as cell-based. The following applies: for IC50: Vero E6 cells. The protocol:
Cells were grown in 6- or 12-well plates or 8-well chamber slides to the desired confluency and then washed twice with phosphate-buffered saline (PBS, pH 7.4). They were then mock-inoculated with medium only or virus-inoculated with various multiplicities of infection (MOI): MOI of 0.01 or 1 FFU/cell for IAV, and MOI of 0.01 or 0.1 FFU/cell for SARS-CoV-2, BCoV, PEDV, PRRSV, and PSaV. Thereafter, each inoculum was absorbed for 1 h, and the cells were washed twice with PBS (pH 7.4). As shown in Supplementary Table 4, further treatments and incubations varied dependent on the virus species used. Cells treated with PKA inhibitor H89 (5 μM or 50 μM concentration) or vehicle-treated immediately after absorption of IAV at an MOI of 1 FFU or SARS-CoV-2 at an MOI of 0.1 FFU were incubated for 24 and 36 h, respectively, and each cell lysate was used for the detection of HSL and pHSL by western blot analysis as described below. Cells treated with lipase inhibitors at the median incubation time of IAV or SARS-CoV-2 as described in the above condition were supplemented with LA, OA, or PA at 100 µM concentration and left incubation for further median incubation time. The cells were used to assess levels of intracellular TAGs, cholesterol, FFAs, glycerol, FAO, proinflammatory cytokines as well as viral genome copy numbers and virus titers as described below and in Supplementary Information.
To determine the antiviral effects of chemicals, serial 10-fold dilutions of each cell culture supernatant after three cycles of freezing and thawing cycles were prepared in appropriate medium supplemented with 100 U/mL penicillin and 100 μg/mL streptomycin as described above. To determine the viral infectivity titer in lung tissues from the hamsters challenged with or without SARS-CoV-2, or administered with or without inhibitors as described above, aseptically sampled lungs from five hamsters per group at day five post-virus infection were harvested. Cleared supernatants from lung tissue as produced from IAV-infected mice above were serially tenfold-diluted with virus growth medium. […] The cells were washed twice with PBS (pH 8.0), mounted with 60% glycerol, and observed byr inverted fluorescence microscopy. The number of cells showing a viral antigen-positive signal at the endpoint dilution were counted. IC50 was calculated using GraphPad Prism software version 8.4.2. […] CC50 data from the MTT assay and IC50 from the IF assay were both calculated using GraphPad Prism software version 8.4.2.

In data set [4] the test system is Vero E6. Nature of the data set: Cytotoxicity, MTT assay, Vero E6. The format is cell-based, African green monkey. The protocol:
(§3) The cytotoxic effects of the chemicals and their solvents were tested by the MTT assay,[44] and its procedure is described in Supplementary Information.
(§4) The cytotoxic effects of the chemicals and their solvents used were tested by the MTT assay as described previously.^10 In brief, the chemicals were dissolved in DMSO to a stock concentration of 10 mM, and then freshly serially diluted in serum-free medium before being added to cell culture monolayers. The absorbance was measured using an enzyme-linked immunosorbent assay (ELISA) reader at an optical density (OD) of 570 nm. The percent cell viability was calculated using the following formula, [(ODsample˗ODblank)/(ODcontrol˗ODblank)] × 100%. According to the cell cytotoxicity data, dose-response curves were generated for the calculation of CC50 using GraphPad Prism software version 8.4.2.
(Tetrazolium dyes change colour on reduction, which living cells bring about.)

Data set [5] relates to seven target RNA viruses. Nature of the data set: Broad-spectrum antiviral effect at 1-20 µM at different treatment times (RT-qPCR, CCIF). The format is cell-based. The following applies: all target RNA viruses, treated just prior to the peak of lipase activity vs immediately after virus absorption. A general note: In qPCR the cycle at which signal appears reflects the starting amount.

In data set [6] the test system is MARC. Nature of the data set: Cytotoxicity, MTT assay, MARC. It is filed as cell-based, African green monkey. As for the experimental part: as §3, §4
The subject of data set [7] is LD lipolysis (FFA and glycerol release). Kind of data set: Intracellular FFA and glycerol quantification in IAV-infected A549 cells. The format is cell-based, human. The following applies: 20 µM at 12 hpi, vs vehicle-treated control. The protocol:
as §1, §2

Regarding `CN(C)C(=O)Nc1cccc(-c2ccc(N(C)C)cc2)c1` [Atglistatin], the “levels of intracellular FFAs and glycerol” value in data set [1] and in data set [7] was “significantly reduced” each time. For the same compound, the “virus replication (genome copy number, infectious progeny)” value in data set [2] is listed as “inhibiting the replication”. In addition, the “SI (CC50/IC50)” value came to 251 in data set [2] and 116 in data set [3]. Also, the IC50 is 0.82 ± 0.08 µM in data set [2] and 1.96 ± 0.14 µM in data set [3]. Also, the CC50 was found to be 226 ± 2.4 µM in data set [4] and 212 ± 3.5 µM in data set [6]. Also, the “viral genome replication and infectious progeny production” value in data set [5] is “greater reduction in viral genome replication and infectious progeny production of all target RNA viruses in a dose-dependent manner”.
For the compound `COc1nn(-c2ccc(NC(=O)OCc3ccccc3)c(C)c2)c(=O)o1` [CAY10499], the “levels of intracellular FFAs and glycerol” value in data set [1] and in data set [7] was “significantly reduced” in each case. In addition, the “virus replication (genome copy number, infectious progeny)” value in data set [2] is “inhibiting the replication”. Further, the “SI (CC50/IC50)” value was found to be 27 in data set [2] and 30 in data set [3]. Moreover, the IC50 in data set [2] came out at 4.13 ± 0.46 µM; in data set [3] it was 3.19 ± 0.42 µM. Further, the CC50 in data set [4] was determined as 102 ± 8.3 µM; in data set [6], 101 ± 4 µM. Besides, in data set [5], the “viral genome replication and infectious progeny production” value was “greater reduction in viral genome replication and infectious progeny production of all target RNA viruses in a dose-dependent manner”.

Source of the values: PMC9575645 (Signal Transduction and Targeted Therapy, 2022).
